Data taken from patent US20240109917A1 (ACTELION PHARMACEUTICALS LTD, priority 2020, published 2024).
pIC50: −log10 of the molar value.

How the values were obtained:
PDGFRβ = PDGFRβ (Rattus norvegicus (Rat), UniProt Q05030); assay: PDGFRβ Cellular Assay (PDGFRb P-Y751 HTRF in A10 cells stimulated with PDGF-BB); format: cell-based; conditions: read-out: PDGFR Cellular IC50
Summary of the method: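 Phospho-Y751 PDGFRβ was measured by HTRF in lysates of A10 rat cells. Cells received compound for 3 hours before PDGF-BB stimulation (100 ng/mL working stock).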

[1] = target: His6-TEV-PDGFRβ (557-1016) (Homo sapiens (Human), UniProt P09619); assay: PDGFRβ HTRF Assay; format: biochemical; conditions: read-out: PDGFR HTRF IC50
Summary of the method: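 HTRF KinEASE-TK readout (665/620 nm ratio) of TK-biotin substrate phosphorylation by His-tagged PDGFRβ kinase domain. Enzyme and inhibitor preincubated 30 min, then ATP/substrate added for 3 h at room temperature before 60 min EDTA quench/detection.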

Sequence of His6-TEV-PDGFRβ (557-1016) (P09619 557-1016): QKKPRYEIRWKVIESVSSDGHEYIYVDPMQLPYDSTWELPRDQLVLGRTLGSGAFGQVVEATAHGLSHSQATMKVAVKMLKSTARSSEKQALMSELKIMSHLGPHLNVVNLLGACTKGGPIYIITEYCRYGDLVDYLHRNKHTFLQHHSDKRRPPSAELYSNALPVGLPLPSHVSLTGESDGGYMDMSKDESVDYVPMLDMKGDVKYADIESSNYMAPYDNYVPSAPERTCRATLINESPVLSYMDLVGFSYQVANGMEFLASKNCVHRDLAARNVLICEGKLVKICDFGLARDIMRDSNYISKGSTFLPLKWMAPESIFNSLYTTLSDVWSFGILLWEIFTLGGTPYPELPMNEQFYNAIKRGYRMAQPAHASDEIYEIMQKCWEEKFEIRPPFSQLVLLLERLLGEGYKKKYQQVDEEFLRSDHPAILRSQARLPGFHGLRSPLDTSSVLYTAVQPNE
Sequence of PDGFRβ (Q05030 32-1097): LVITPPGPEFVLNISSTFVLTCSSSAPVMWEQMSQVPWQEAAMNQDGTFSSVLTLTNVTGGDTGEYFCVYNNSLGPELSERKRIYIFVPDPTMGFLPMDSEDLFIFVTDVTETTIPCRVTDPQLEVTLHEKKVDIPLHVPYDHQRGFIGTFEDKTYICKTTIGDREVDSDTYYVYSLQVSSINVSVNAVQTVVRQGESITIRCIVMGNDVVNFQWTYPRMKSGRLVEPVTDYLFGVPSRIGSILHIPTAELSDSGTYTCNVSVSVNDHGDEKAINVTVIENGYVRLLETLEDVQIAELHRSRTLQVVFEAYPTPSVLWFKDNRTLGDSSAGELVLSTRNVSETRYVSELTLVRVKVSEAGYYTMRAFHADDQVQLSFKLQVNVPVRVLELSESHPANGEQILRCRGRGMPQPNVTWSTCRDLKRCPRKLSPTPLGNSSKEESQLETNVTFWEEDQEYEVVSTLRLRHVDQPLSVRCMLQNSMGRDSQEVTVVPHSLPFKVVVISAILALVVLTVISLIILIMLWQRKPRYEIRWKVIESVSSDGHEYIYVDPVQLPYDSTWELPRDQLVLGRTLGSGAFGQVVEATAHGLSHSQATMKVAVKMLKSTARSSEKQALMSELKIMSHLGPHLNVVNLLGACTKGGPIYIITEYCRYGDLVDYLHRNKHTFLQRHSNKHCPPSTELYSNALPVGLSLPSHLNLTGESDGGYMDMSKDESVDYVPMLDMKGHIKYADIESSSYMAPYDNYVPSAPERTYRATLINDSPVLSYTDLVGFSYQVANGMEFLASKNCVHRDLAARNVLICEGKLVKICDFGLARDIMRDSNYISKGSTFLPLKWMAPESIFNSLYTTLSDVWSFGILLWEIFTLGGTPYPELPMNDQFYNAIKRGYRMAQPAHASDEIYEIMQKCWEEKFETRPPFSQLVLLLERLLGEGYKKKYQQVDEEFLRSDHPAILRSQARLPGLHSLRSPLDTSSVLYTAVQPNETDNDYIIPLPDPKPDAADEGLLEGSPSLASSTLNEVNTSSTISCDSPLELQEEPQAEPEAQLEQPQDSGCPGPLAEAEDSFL

Cc1ncc(NC(=O)CCN2CCCC2(C)C)cc1NC(=O)c1cnn2cc(-c3ccnn3C)sc12 [Example 11, N-(5-(3-(2,2-dimethylpyrrolidin-1-yl)propanamido)-2-methyl-pyridin-3-yl)-2-(1-methyl-1H-pyrazol-5-yl)pyrazolo[5,1-b]thiazole-7-carboxamide]
pIC50 (PDGFRβ): 7.97 | pIC50 [1]: 9.30

Cc1ncc(C(=O)NCCN2CCC(F)(F)CC2)cc1NC(=O)c1cnn2cc(-c3cnn(C)c3)sc12 [Example 119, N-(5-((2-(4,4-difluoropiperidin-1-yl)ethyl)carbamoyl)-2-methylpyridin-3-yl)-2-(1-methyl-1H-pyrazol-4-yl)pyrazolo[5,1-b]thiazole-7-carboxamide]
pIC50 (PDGFRβ): 8.31 | pIC50 [1]: 9.52

Cc1ncc(C(=O)NCCN2C3CCCC2CCC3)cc1NC(=O)c1cnn2cc(-c3cnn(C)c3)sc12 [Example 4, N-(5-((2-(9-azabicyclo[3.3.1]nonan-9-yl)ethyl)carbamoyl)-2-methylpyridin-3-yl)-2-(1-methyl-1H-pyrazol-4-yl)pyrazolo[5,1-b]thiazole-7-carboxamide]
pIC50 (PDGFRβ): 7.93 | pIC50 [1]: 9.52

Cc1ncc(C(=O)NCCN2CCC(F)(F)CC2)cc1NC(=O)c1cnn2cc(-c3ccncc3)sc12 [Example 154, N-(5-((2-(4,4-difluoropiperidin-1-yl)ethyl)carbamoyl)-2-methylpyridin-3-yl)-2-(pyridin-4-yl)pyrazolo[5,1-b]thiazole-7-carboxamide]
pIC50 (PDGFRβ): 8.06 | pIC50 [1]: 9.52

Cc1ncc(C(=O)NCCN2CC3(CCC3)C2)cc1NC(=O)c1cnn2cc(-c3cnn(C)c3)sc12 [Example 124, N-(5-((2-(2-azaspiro[3.3]heptan-2-yl)ethyl)carbamoyl)-2-methylpyridin-3-yl)-2-(1-methyl-1H-pyrazol-4-yl)pyrazolo[5,1-b]thiazole-7-carboxamide]
pIC50 (PDGFRβ): 6.87 | pIC50 [1]: 9.22

Cc1ncc(NC(=O)CCN2CCC3(CC3)C2)cc1NC(=O)c1cnn2cc(-c3cnn(C)c3)sc12 [Example 104, N-(5-(3-(5-azaspiro[2.4]heptan-5-yl)propanamido)-2-methylpyridin-3-yl)-2-(1-methyl-1H-pyrazol-4-yl)pyrazolo[5,1-b]thiazole-7-carboxamide]
pIC50 (PDGFRβ): 8.04 | pIC50 [1]: 9.40

COCCN(CCNC(=O)c1cnc(C)c(NC(=O)c2cnn3cc(-c4cnn(C)c4)sc23)c1)C1CCC1 [Example 115, N-(5-((2-(cyclobutyl(2-methoxyethyl)amino)ethyl)carbamoyl)-2-methylpyridin-3-yl)-2-(1-methyl-1H-pyrazol-4-yl)pyrazolo[5,1-b]thiazole-7-carboxamide]
pIC50 (PDGFRβ): 7.88 | pIC50 [1]: 9.40

COCCN(CCNC(=O)c1cnc(C)c(NC(=O)c2cnn3cc(-c4cnn(C)c4)sc23)c1)CCOC [Example 128, N-(5-((2-(bis(2-methoxyethyl)amino)ethyl)carbamoyl)-2-methylpyridin-3-yl)-2-(1-methyl-1H-pyrazol-4-yl)pyrazolo[5,1-b]thiazole-7-carboxamide]
pIC50 (PDGFRβ): 7.33 | pIC50 [1]: 9.05

Cc1ncc(C(=O)NCCN2CCCC2(C)C)cc1NC(=O)c1cnn2cc(-c3cn(C)nc3C)sc12 [Example 174, 2-(1,3-dimethyl-1H-pyrazol-4-yl)-N-(5-((2-(2,2-dimethylpyrrolidin-1-yl)ethyl)carbamoyl)-2-methylpyridin-3-yl)pyrazolo[5,1-b]thiazole-7-carboxamide]
pIC50 (PDGFRβ): 8.00 | pIC50 [1]: 9.52

Cc1ncc(NC(=O)NCC2CCN(C)CC2)cc1NC(=O)c1cnn2cc(-c3cnn(C)c3)sc12 [Example 107, 2-(1-methyl-1H-pyrazol-4-yl)-N-(2-methyl-5-(3-((1-methylpiperidin-4-yl)methyl)ureido)pyridin-3-yl)pyrazolo[5,1-b]thiazole-7-carboxamide]
pIC50 (PDGFRβ): < 5.52 | pIC50 [1]: 7.88

Cc1ncc(C(=O)NCCN2CCCOCC2)cc1NC(=O)c1cnn2cc(-c3cnn(C)c3)sc12 [Example 121, N-(5-((2-(1,4-oxazepan-4-yl)ethyl)carbamoyl)-2-methylpyridin-3-yl)-2-(1-methyl-1H-pyrazol-4-yl)pyrazolo[5,1-b]thiazole-7-carboxamide]
pIC50 (PDGFRβ): 7.09 | pIC50 [1]: 9.40

Cc1ncc(C(=O)NCCN2CC3CCC2CC3)cc1NC(=O)c1cnn2cc(-c3cnn(CC#N)c3)sc12 [Example 151, N-(5-((2-(2-azabicyclo[2.2.2]octan-2-yl)ethyl)carbamoyl)-2-methylpyridin-3-yl)-2-(1-(cyanomethyl)-1H-pyrazol-4-yl)pyrazolo[5,1-b]thiazole-7-carboxamide]
pIC50 (PDGFRβ): 6.62 | pIC50 [1]: 9.52

Cc1ncc(C(=O)NCCN2CCCC(F)(F)C2)cc1NC(=O)c1cnn2cc(-c3cnn(C)c3)sc12 [Example 123, N-(5-((2-(3,3-difluoropiperidin-1-yl)ethyl)carbamoyl)-2-methylpyridin-3-yl)-2-(1-methyl-1H-pyrazol-4-yl)pyrazolo[5,1-b]thiazole-7-carboxamide]
pIC50 (PDGFRβ): 8.11 | pIC50 [1]: 9.52

Cc1ncc(C(=O)NCCN2CC3CCC2CC3)cc1NC(=O)c1cnn2cc(-c3cnn(C)c3C)sc12 [Example 171, N-(5-((2-(2-azabicyclo[2.2.2]octan-2-yl)ethyl)carbamoyl)-2-methylpyridin-3-yl)-2-(1,5-dimethyl-1H-pyrazol-4-yl)pyrazolo[5,1-b]thiazole-7-carboxamide]
pIC50 (PDGFRβ): 7.46 | pIC50 [1]: 9.52

Cc1ncc(C(=O)NCCN2CCCC2(C)C)cc1NC(=O)c1cnn2cc(-c3ccn(C)n3)sc12 [Example 9, N-(5-((2-(2,2-dimethylpyrrolidin-1-yl)ethyl)carbamoyl)-2-methylpyridin-3-yl)-2-(1-methyl-1H-pyrazol-3-yl)pyrazolo[5,1-b]thiazole-7-carboxamide]
pIC50 (PDGFRβ): 7.77 | pIC50 [1]: 9.52

Cc1ncc(C(=O)NCCN2C3CCC2COC3)cc1NC(=O)c1cnn2cc(-c3cnn(C)c3)sc12 [Example 122, N-(5-((2-(3-oxa-8-azabicyclo[3.2.1]octan-8-yl)ethyl)carbamoyl)-2-methylpyridin-3-yl)-2-(1-methyl-1H-pyrazol-4-yl)pyrazolo[5,1-b]thiazole-7-carboxamide]
pIC50 (PDGFRβ): 7.71 | pIC50 [1]: 9.52

COCCn1cc(-c2cn3ncc(C(=O)Nc4cc(NC(=O)CCN5CCC56CCC6)cnc4C)c3s2)cn1 [Example 95, N-(5-(3-(1-azaspiro[3.3]heptan-1-yl)propanamido)-2-methylpyridin-3-yl)-2-(1-(2-methoxyethyl)-1H-pyrazol-4-yl)pyrazolo[5,1-b]thiazole-7-carboxamide]
pIC50 (PDGFRβ): 7.75 | pIC50 [1]: 9.40

Cc1ncc(C(=O)NCCN2CCCC2(C)C)cc1NC(=O)c1cnn2cc(-c3ccncc3)sc12 [Example 7, N-(5-((2-(2,2-dimethylpyrrolidin-1-yl)ethyl)carbamoyl)-2-methyl-pyridin-3-yl)-2-(pyridin-4-yl)pyrazolo[5,1-b]thiazole-7-carboxamide]
pIC50 (PDGFRβ): 7.80 | pIC50 [1]: 9.30

Cc1ncc(C(=O)NCCN2CCC3(CC3)C2)cc1NC(=O)c1cnn2cc(-c3ccncc3)sc12 [Example 153, N-(5-((2-(5-azaspiro[2.4]heptan-5-yl)ethyl)carbamoyl)-2-methylpyridin-3-yl)-2-(pyridin-4-yl)pyrazolo[5,1-b]thiazole-7-carboxamide]
pIC50 (PDGFRβ): 6.98 | pIC50 [1]: 9.40

COCCn1cc(-c2cn3ncc(C(=O)Nc4cc(C(=O)NCCN5CCC(F)(F)CC5)cnc4C)c3s2)cn1 [Example 165, N-(5-((2-(4,4-difluoropiperidin-1-yl)ethyl)carbamoyl)-2-methylpyridin-3-yl)-2-(1-(2-methoxyethyl)-1H-pyrazol-4-yl)pyrazolo[5,1-b]thiazole-7-carboxamide]
pIC50 (PDGFRβ): 7.94 | pIC50 [1]: 9.22

Cc1ncc(NC(=O)NCC2CCN(C(C)C)CC2)cc1NC(=O)c1cnn2cc(-c3cnn(C)c3)sc12 [Example 109, N-(5-(3-((1-isopropylpiperidin-4-yl)methyl)ureido)-2-methylpyridin-3-yl)-2-(1-methyl-1H-pyrazol-4-yl)pyrazolo[5,1-b]thiazole-7-carboxamide]
pIC50 (PDGFRβ): < 5.52 | pIC50 [1]: 7.41

Cc1ncc(C(=O)NCCN2CCC(C)(C)C2)cc1NC(=O)c1cnn2cc(-c3ccncc3)sc12 [Example 156, N-(5-((2-(3,3-dimethylpyrrolidin-1-yl)ethyl)carbamoyl)-2-methylpyridin-3-yl)-2-(pyridin-4-yl)pyrazolo[5,1-b]thiazole-7-carboxamide]
pIC50 (PDGFRβ): 7.58 | pIC50 [1]: 9.40

Cc1ncc(C(=O)NCCN2CCCC23COC3)cc1NC(=O)c1cnn2cc(-c3c(C)nn(C)c3C)sc12 [Example 179, N-(5-((2-(2-oxa-5-azaspiro[3.4]octan-5-yl)ethyl)carbamoyl)-2-methylpyridin-3-yl)-2-(1,3,5-trimethyl-1H-pyrazol-4-yl)pyrazolo[5,1-b]thiazole-7-carboxamide]
pIC50 (PDGFRβ): 7.26 | pIC50 [1]: 9.00

Cc1ncc(C(=O)NCCN2Cc3ncsc3C2)cc1NC(=O)c1cnn2cc(-c3cnn(C)c3)sc12 [Example 111, N-(5-((2-(4H-pyrrolo[3,4-d]thiazol-5 (6H)-yl)ethyl)carbamoyl)-2-methylpyridin-3-yl)-2-(1-methyl-1H-pyrazol-4-yl)pyrazolo[5,1-b]thiazole-7-carboxamide]
pIC50 (PDGFRβ): 6.53 | pIC50 [1]: 8.96
